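Method: 48-hour compound exposure of cells in 96-well plates, five concentrations, linear interpolation of endpoints. The concentration for 50% growth inhibition is given as GI50.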 The source made the active and inactive calls. Rule as the data show it: active = GI50 up to about 1.1 µM and inactive = higher.
How the values were obtained:
Assay in all cases: NCI-60 cell line screen, 48 h
M19-MEL = test system: M19-MEL
LOX IMVI = test system: LOX IMVI
OVCAR-5 = test system: OVCAR-5
NCI-H460 = test system: NCI-H460
SK-OV-3 = test system: SK-OV-3
PC-3 = test system: PC-3
NCI-H226 = test system: NCI-H226
SF-295 = test system: SF-295
UACC-62 = test system: UACC-62
DLD-1 = test system: DLD-1
OVCAR-8 = test system: OVCAR-8
SNB-78 = test system: SNB-78
MDA-MB-231 = test system: MDA-MB-231
SR = test system: SR
MDA-N = test system: MDA-N
HL-60 = test system: HL-60
MOLT-4 = test system: MOLT-4
KM12 = test system: KM12
786-0 = test system: 786-0
SNB-19 = test system: SNB-19
HCC 2998 = test system: HCC 2998
NCI/ADR-RES = test system: NCI/ADR-RES
NCI-H522 = test system: NCI-H522
ACHN = test system: ACHN
SNB-75 = test system: SNB-75
Malme-3M = test system: Malme-3M
SK-MEL-28 = test system: SK-MEL-28
U-251 = test system: U-251
OVCAR-4 = test system: OVCAR-4
LXFL 529 = test system: LXFL 529
DU-145 = test system: DU-145
RPMI-8226 = test system: RPMI-8226
HOP-92 = test system: HOP-92
MCF7 = test system: MCF7
Hs-578T = test system: Hs-578T
HCT-15 = test system: HCT-15
IGROV-1 = test system: IGROV-1
BT-549 = test system: BT-549
COLO 205 = test system: COLO 205
SN12C = test system: SN12C
SK-MEL-5 = test system: SK-MEL-5
T47D = test system: T47D
CCRF-CEM = test system: CCRF-CEM
XF498 = test system: XF498
HCT-116 = test system: HCT-116
EKVX = test system: EKVX
CAKI-1 = test system: CAKI-1
SW-620 = test system: SW-620
OVCAR-3 = test system: OVCAR-3
KM-20L2 = test system: KM-20L2
TK-10 = test system: TK-10
M14 = test system: M14
UACC-257 = test system: UACC-257
HOP-62 = test system: HOP-62
DMS-114 = test system: DMS-114
RXF 393 = test system: RXF 393
SF-539 = test system: SF-539
SK-MEL-2 = test system: SK-MEL-2
K562 = test system: K562
A498 = test system: A498
HOP-18 = test system: HOP-18
HT-29 = test system: HT-29
DMS-273 = test system: DMS-273
NCI-H23 = test system: NCI-H23
UO-31 = test system: UO-31
SF-268 = test system: SF-268
MDA-MB-435 = test system: MDA-MB-435
A549 = test system: A549

Structure (SMILES): Cn1c2ccccc2c2ccc3c(c21)C(=O)C=CC3=O
- GI50 (M19-MEL): 10.5 µM (inactive)
- GI50 (LOX IMVI): 4.18 µM (inactive)
- GI50 (OVCAR-5): 14.1 µM (inactive)
- GI50 (NCI-H460): 16.9 µM (inactive)
- GI50 (SK-OV-3): 17.1 µM (inactive)
- GI50 (PC-3): 5.6 µM (inactive)
- GI50 (NCI-H226): 20.5 µM (inactive)
- GI50 (SF-295): 24.7 µM (inactive)
- GI50 (UACC-62): 12.1 µM (inactive)
- GI50 (DLD-1): 2.3 µM (inactive)
- GI50 (OVCAR-8): 7.03 µM (inactive)
- GI50 (SNB-78): 21.1 µM (inactive)
- GI50 (MDA-MB-231): 6.73 µM (inactive)
- GI50 (SR): 0.796 µM (active)
- GI50 (MDA-N): 6.82 µM (inactive)
- GI50 (HL-60): 0.738 µM (active)
- GI50 (MOLT-4): 0.755 µM (active)
- GI50 (KM12): 22.9 µM (inactive)
- GI50 (786-0): 4.27 µM (inactive)
- GI50 (SNB-19): 26.5 µM (inactive)
- GI50 (HCC 2998): 10.3 µM (inactive)
- GI50 (NCI/ADR-RES): 5.16 µM (inactive)
- GI50 (NCI-H522): 2.96 µM (inactive)
- GI50 (ACHN): 3.52 µM (inactive)
- GI50 (SNB-75): 16.7 µM (inactive)
- GI50 (Malme-3M): 3.39 µM (inactive)
- GI50 (SK-MEL-28): 11.1 µM (inactive)
- GI50 (U-251): 11.4 µM (inactive)
- GI50 (OVCAR-4): 1.82 µM (inactive)
- GI50 (LXFL 529): 2.95 µM (inactive)
- GI50 (DU-145): 16 µM (inactive)
- GI50 (RPMI-8226): 2.32 µM (inactive)
- GI50 (HOP-92): 2.52 µM (inactive)
- GI50 (MCF7): 3.3 µM (inactive)
- GI50 (Hs-578T): 18.4 µM (inactive)
- GI50 (HCT-15): 4.56 µM
- GI50 (IGROV-1): 15.4 µM (inactive)
- GI50 (BT-549): 6.98 µM (inactive)
- GI50 (COLO 205): 2.43 µM (inactive)
- GI50 (SN12C): 9.93 µM (inactive)
- GI50 (SK-MEL-5): 15.2 µM (inactive)
- GI50 (T47D): 3.27 µM (inactive)
- GI50 (CCRF-CEM): 0.69 µM (active)
- GI50 (XF498): 2.15 µM (inactive)
- GI50 (HCT-116): 4.29 µM (inactive)
- GI50 (EKVX): 19.4 µM (inactive)
- GI50 (CAKI-1): 4.33 µM (inactive)
- GI50 (SW-620): 2.02 µM (inactive)
- GI50 (OVCAR-3): 7.24 µM (inactive)
- GI50 (KM-20L2): 17.1 µM (inactive)
- GI50 (TK-10): 3.88 µM (inactive)
- GI50 (M14): 8.65 µM (inactive)
- GI50 (UACC-257): 9.48 µM (inactive)
- GI50 (HOP-62): 28 µM (inactive)
- GI50 (DMS-114): 8.26 µM (inactive)
- GI50 (RXF 393): 2.47 µM (inactive)
- GI50 (SF-539): 11.5 µM (inactive)
- GI50 (SK-MEL-2): 15.6 µM (inactive)
- GI50 (K562): 1.75 µM (inactive)
- GI50 (A498): > 45.2 µM (inactive)
- GI50 (HOP-18): 2 µM (inactive)
- GI50 (HT-29): 10.5 µM (inactive)
- GI50 (DMS-273): 12.9 µM (inactive)
- GI50 (NCI-H23): 12.7 µM (inactive)
- GI50 (UO-31): 6.93 µM (inactive)
- GI50 (SF-268): 14.8 µM (inactive)
- GI50 (MDA-MB-435): 5.11 µM (inactive)
- GI50 (A549): 26.2 µM (inactive)

Structure (SMILES): O=C(Nc1ccc(C2=NCCN2)cc1)c1cncc(C(=O)Nc2ccc(C3=NCCN3)cc2)c1
- GI50 (M19-MEL): > 100 µM (inactive)
- GI50 (LOX IMVI): > 100 µM (inactive)
- GI50 (OVCAR-5): > 100 µM (inactive)
- GI50 (NCI-H460): > 100 µM (inactive)
- GI50 (SK-OV-3): > 100 µM (inactive)
- GI50 (NCI-H226): > 94.6 µM (inactive)
- GI50 (SF-295): > 100 µM (inactive)
- GI50 (UACC-62): > 100 µM (inactive)
- GI50 (DLD-1): > 100 µM (inactive)
- GI50 (OVCAR-8): > 100 µM (inactive)
- GI50 (SNB-78): > 100 µM (inactive)
- GI50 (HL-60): > 100 µM (inactive)
- GI50 (MOLT-4): > 100 µM (inactive)
- GI50 (KM12): > 100 µM (inactive)
- GI50 (SNB-19): > 100 µM (inactive)
- GI50 (HCC 2998): > 100 µM (inactive)
- GI50 (NCI/ADR-RES): > 100 µM (inactive)
- GI50 (NCI-H522): > 100 µM (inactive)
- GI50 (SNB-75): > 31.6 µM (inactive)
- GI50 (Malme-3M): > 100 µM (inactive)
- GI50 (SK-MEL-28): > 31.6 µM (inactive)
- GI50 (U-251): > 100 µM (inactive)
- GI50 (OVCAR-4): > 100 µM (inactive)
- GI50 (RPMI-8226): > 100 µM (inactive)
- GI50 (HOP-92): > 100 µM (inactive)
- GI50 (MCF7): > 100 µM (inactive)
- GI50 (HCT-15): > 100 µM
- GI50 (IGROV-1): > 100 µM (inactive)
- GI50 (COLO 205): > 100 µM (inactive)
- GI50 (SN12C): > 100 µM (inactive)
- GI50 (SK-MEL-5): > 100 µM (inactive)
- GI50 (CCRF-CEM): > 100 µM (inactive)
- GI50 (XF498): > 100 µM (inactive)
- GI50 (HCT-116): > 100 µM (inactive)
- GI50 (EKVX): > 100 µM (inactive)
- GI50 (CAKI-1): > 100 µM (inactive)
- GI50 (SW-620): > 100 µM (inactive)
- GI50 (OVCAR-3): > 100 µM (inactive)
- GI50 (KM-20L2): > 100 µM (inactive)
- GI50 (UACC-257): > 100 µM (inactive)
- GI50 (HOP-62): > 100 µM (inactive)
- GI50 (DMS-114): > 100 µM (inactive)
- GI50 (RXF 393): > 100 µM (inactive)
- GI50 (SF-539): > 100 µM (inactive)
- GI50 (SK-MEL-2): > 100 µM (inactive)
- GI50 (K562): > 100 µM (inactive)
- GI50 (A498): > 100 µM (inactive)
- GI50 (HOP-18): > 100 µM (inactive)
- GI50 (HT-29): > 100 µM (inactive)
- GI50 (DMS-273): > 100 µM (inactive)
- GI50 (NCI-H23): > 100 µM (inactive)
- GI50 (UO-31): > 100 µM (inactive)
- GI50 (SF-268): > 31.6 µM (inactive)
- GI50 (A549): > 100 µM (inactive)

Structure (SMILES): Cc1cc(Cl)ccc1N1C(=O)C(=O)C(c2nc3ccccc3o2)C(=O)C1=O
- GI50 (M19-MEL): > 100 µM (inactive)
- GI50 (NCI-H460): > 100 µM (inactive)
- GI50 (SK-OV-3): > 100 µM (inactive)
- GI50 (NCI-H226): > 100 µM (inactive)
- GI50 (SF-295): > 100 µM (inactive)
- GI50 (UACC-62): 65 µM (inactive)
- GI50 (DLD-1): 32.9 µM (inactive)
- GI50 (OVCAR-8): > 100 µM (inactive)
- GI50 (SNB-78): > 100 µM (inactive)
- GI50 (SR): 34 µM (inactive)
- GI50 (HL-60): 33.2 µM (inactive)
- GI50 (MOLT-4): 30.4 µM (inactive)
- GI50 (KM12): > 100 µM (inactive)
- GI50 (786-0): > 100 µM (inactive)
- GI50 (SNB-19): > 100 µM (inactive)
- GI50 (HCC 2998): > 100 µM (inactive)
- GI50 (NCI-H522): > 100 µM (inactive)
- GI50 (ACHN): > 100 µM (inactive)
- GI50 (SNB-75): 63.4 µM (inactive)
- GI50 (Malme-3M): > 100 µM (inactive)
- GI50 (SK-MEL-28): 96.4 µM (inactive)
- GI50 (U-251): > 100 µM (inactive)
- GI50 (OVCAR-4): > 100 µM (inactive)
- GI50 (LXFL 529): 71.3 µM (inactive)
- GI50 (HOP-92): 58.7 µM (inactive)
- GI50 (HCT-15): > 100 µM
- GI50 (IGROV-1): 35.6 µM (inactive)
- GI50 (COLO 205): 31.1 µM (inactive)
- GI50 (SN12C): > 100 µM (inactive)
- GI50 (SK-MEL-5): > 100 µM (inactive)
- GI50 (CCRF-CEM): 23.7 µM (inactive)
- GI50 (XF498): > 100 µM (inactive)
- GI50 (HCT-116): 46.5 µM (inactive)
- GI50 (EKVX): > 100 µM (inactive)
- GI50 (CAKI-1): > 100 µM (inactive)
- GI50 (SW-620): 43.7 µM (inactive)
- GI50 (OVCAR-3): 61.1 µM (inactive)
- GI50 (KM-20L2): > 100 µM (inactive)
- GI50 (TK-10): > 100 µM (inactive)
- GI50 (M14): 67 µM (inactive)
- GI50 (UACC-257): 71 µM (inactive)
- GI50 (HOP-62): > 100 µM (inactive)
- GI50 (DMS-114): 68.9 µM (inactive)
- GI50 (RXF 393): > 100 µM (inactive)
- GI50 (SF-539): > 100 µM (inactive)
- GI50 (SK-MEL-2): > 100 µM (inactive)
- GI50 (A498): > 100 µM (inactive)
- GI50 (HOP-18): > 100 µM (inactive)
- GI50 (HT-29): 65.8 µM (inactive)
- GI50 (DMS-273): > 100 µM (inactive)
- GI50 (NCI-H23): > 100 µM (inactive)
- GI50 (UO-31): > 100 µM (inactive)
- GI50 (SF-268): > 100 µM (inactive)
- GI50 (A549): > 100 µM (inactive)
